# Measured values from PMC2533354, “Highly specific inhibition of leukaemia virus membrane fusion by interaction of peptide antagonists with a conserved region of the coiled coil of envelope” (Retrovirology, 2008).
# Where a SMILES comes first, the peptide text is derived from it.
# Legend:
# [1] = Relative peptide solubility by laser nephelometry; type: physicochemical; details: filtered PBS with 1.5 % DMSO, maximum solubility in aqueous solution, two-fold serial dilution from DMSO stock, 200 μl, 1 hr at room temperature, laser nephelometry (forward scattered light, NEPHELOstar), duplicate wells, in solution if reading up to 3-fold the DMSO control
# Description: A two-fold serial dilution of peptide in DMSO was performed, and added in duplicate to 96-well microplates. Filtered PBS was added to give a total volume of 200 μl and a final DMSO concentration of 1.5 % in all wells. The plates were incubated at room temperature for 1 hr and the relative solubility of peptides was established by measuring forward scattered light using a NEPHELOstar laser-based microplate nephelometer (BMG LABTECH). Wells containing PBS and 1.5 % DMSO only were used as blanks. Data analysis was carried out using ActivityBase, and peptides giving readings up to and including 3-fold higher than the average reading for the DMSO control were considered to be in solution at the concentrations specified.
# HTLV-1 envelope = biological target: T1, HTLV-1 envelope (Human T-cell leukemia virus 1, UniProt P03381); experiment: Syncytium interference assay, HTLV-1 envelope-expressing HeLa effector cells; type: cell-based; details: concentrations up to 20 μM and above; result in words
# T1 construct: expressed in transfected cells; host or cells: HeLa
# Description: (§1) Briefly, HeLa cells for use as effector cells were transfected with the envelope expression vector pHTE-1 or with equal amounts of pCMV-BLVenv-RRE and pRSV-Rev using the Genejuice™ transfection reagent (Novagen) in accordance with the manufacturer's instructions. 24 h later, 3 × 10^5 effector cells were added to 7 × 10^5 untransfected HeLa target cells in six-well dishes (Nunc). Where appropriate, the co-culture was incubated in the presence of peptides at the concentrations specified. To assess the ability of the peptides to inhibit fusion induced by virally expressed BLV envelope, 2 × 10^5 BLV-infected FLK cells were used as effectors and added to 8 × 10^5 uninfected HeLa cells. After incubation at 37°C for 16 h, cells were washed twice with PBS and fixed in PBS + 3% paraformaldehyde. Assays were performed in triplicate and the number of syncytia (defined as multinucleated cells with 4 or more nuclei) from 10 low-power fields (LPF) per replicate was scored by light microscopy; some assays were stained using Giemsa. A syncytium formation value of 100% is defined as the number of syncytia formed in the absence of peptide but in the presence of 1.5% DMSO.
# BLV envelope = biological target: T2, BLV envelope (Bovine leukemia virus, UniProt P51519); experiment: Syncytium interference assay, BLV envelope-expressing HeLa effector cells; type: cell-based; details: peptide at 20 μM; BLV envelope-expressing HeLa effectors (Figure 4B)
# T2 construct: A fragment encompassing the entire BLV envelope open reading frame; expressed in transfected cells; host or cells: HeLa (co-transfected with pRSV-Rev)
# Description: as §1
# [2] = tested on: virally expressed BLV envelope (BLV-infected FLK cells); details: chronically BLV infected FLK effector cells + HeLa target cells; result in words (Figure 3C)
# Description: as §1
# T2 sequence (P51519 302-515): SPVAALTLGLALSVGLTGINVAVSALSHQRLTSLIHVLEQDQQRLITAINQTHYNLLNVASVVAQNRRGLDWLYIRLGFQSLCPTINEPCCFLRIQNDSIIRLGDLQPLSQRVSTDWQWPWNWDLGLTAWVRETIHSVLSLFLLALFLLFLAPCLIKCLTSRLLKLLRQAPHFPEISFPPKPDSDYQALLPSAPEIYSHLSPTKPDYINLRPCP
# T1 sequence (P03381 313-488): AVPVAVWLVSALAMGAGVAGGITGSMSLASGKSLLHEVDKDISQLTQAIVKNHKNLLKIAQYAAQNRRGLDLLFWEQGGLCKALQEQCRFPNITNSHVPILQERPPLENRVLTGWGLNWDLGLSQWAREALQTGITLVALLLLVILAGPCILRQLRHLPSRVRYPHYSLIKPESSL
smiles,measurement,setting,value
CC[C@H](C)[C@H](NC(=O)[C@H](CCCNC(=N)N)NC(=O)[C@H](CC(C)C)NC(=O)[C@H](Cc1ccccc1)NC(=O)[C@H](CS)NC(=O)[C@H](CS)NC(C)=O)C(=O)N[C@@H](CCC(N)=O)C(=O)N[C@@H](CC(N)=O)C(=O)N[C@@H](CC(=O)O)C(=O)N[C@@H](CO)C(=O)N[C@H](C(=O)N[C@H](C(=O)N[C@@H](CCCNC(=N)N)C(=O)N[C@@H](CC(C)C)C(=O)NCC(=O)N[C@@H](CC(=O)O)C(=O)N[C@@H](CC(C)C)C(=O)N[C@@H](CCC(N)=O)C(=O)N1CCC[C@H]1C(=O)N[C@@H](CC(C)C)C(=O)N[C@@H](CO)C(=O)N[C@@H](CCC(N)=O)C(=O)N[C@@H](CCCNC(=N)N)C(=O)N[C@H](C(=O)N[C@@H](CO)C(=O)N[C@H](C(=O)N[C@@H](CC(=O)O)C(=O)N[C@@H](Cc1c[nH]c2ccccc12)C(=O)N[C@@H](CCC(N)=O)C(N)=O)[C@@H](C)O)C(C)C)[C@@H](C)CC)[C@@H](C)CC [P^BLV-391] (Ac-CCFLRIQNDSIIRLGDLQPLSQRVSTDWQ-NH2),solubility kinetic at 1 h,[1],> 90 µM
same,Inhibition of membrane fusion induced by HTLV-1 envelope,HTLV-1 envelope,failed to inhibit
same,Block of syncytium formation,BLV envelope,> 95%
same,Inhibition of membrane fusion induced by virally expressed BLV envelope,[2],robustly antagonized
